Results from US10028966B2 (Avalyn Pharma Inc., priority 2014, dated 2018).
≈ marks a conversion by molar mass, not a printed value.

Columns and labels:
[1] = Aerosol tolerability analysis of low concentration dosage forms; set-up: key to Throat Irritation: 1 = none; 5 = strong
From the text: Additional observations include maintaining osmolality between about 250 to about 500 mOsmo/kg. The tolerability for formulations with an osmolalty outside this range may be adjusted with modifications in the above formulation parameters and device output and aerosol particle size characteristics.

[2] = Extended-duration intratracheal and oral pharmacokinetic study; format: in vivo, Wistar rats; details: for AUC(0-t) / Cmax: Wistar, rat, plasma
Procedure: Previous intratracheal aerosol delivery (see Example 6) was performed as a single bolus instillation just above the first bifurcation of the lung. For in vivo efficacy studies, an attempt was made to mimic tidal inhaled breathing by splitting the dose into equal parts and administering as before, but over a 2 minute period. […] Doses were prepared in 0.45% sodium chloride solution and were administered as described in Table 21.
Plasma samples and entire lungs were taken at pre-dose, 2, 4, 6, 10, 30, 60 and 120 minutes post dosing. Materials were extracted and pirfenidone quantitated as mcg/mL plasma and μg/gram lung tissue.

[3] = system: inflammasome activation in 264.7 macrophages; experiment: Inflammasome second signal activation (ATP, secreted IL-1β); format: cell-based; details: for IL-1β: LPS +, ATP +; for IC50: Macrophage
[4] = inhaled or intranasal, intratracheal aerosol 2.5 mg/kg
[5] = inhaled or intranasal, intratracheal aerosol 5 mg/kg
[6] = inhaled or intranasal, intratracheal aerosol 10 mg/kg
[7] = intratracheal aerosol 2.5 mg/kg

With Cc1ccc(=O)n(-c2ccccc2)c1 [pirfenidone, 5-methyl-1-phenyl-2-(1H)-pyridone] the “Throat Irritation” value ([1]; no buffer, NaCl 150 mM, saccharin 0.7 mM, pH ND, pirfenidone 16 mg/mL, 3.2 micron) was 5, the “Est. Osmolality” value ([1]; phosphate 5 mM, MgCl2 43.3 mM, pH 7, pirfenidone 16 mg/mL) was 210 mOsmo/Kg and the “Throat Irritation” value ([1]; phosphate 5 mM, MgCl2 43.3 mM, pH 7, pirfenidone 16 mg/mL, 3.7 micron) was 5. The “Est. Osmolality” value ([1]; phosphate 5 mM, MgCl2 43.3 mM, saccharin 0.5 mM, pH 7, pirfenidone 16 mg/mL) was 210 mOsmo/Kg, the “Throat Irritation” value ([1]; phosphate 5 mM, MgCl2 43.3 mM, saccharin 0.5 mM, pH 7, pirfenidone 16 mg/mL, 3.7 micron) was 5 and the “Est. Osmolality” value ([1]; phosphate 5 mM, NaCl 50 mM, MgCl2 43.3 mM, pH 7, pirfenidone 16 mg/mL) was 310 mOsmo/Kg. The “Throat Irritation” value ([1]; phosphate 5 mM, NaCl 50 mM, MgCl2 43.3 mM, pH 7, pirfenidone 16 mg/mL, 3.7 micron) was 4, the “Est. Osmolality” value ([1]; phosphate 5 mM, NaCl 50 mM, pH 7, pirfenidone 16 mg/mL) was 200 mOsmo/Kg and the “Throat Irritation” value ([1]; phosphate 5 mM, NaCl 50 mM, pH 7, pirfenidone 16 mg/mL, 3.7 micron) was 5. The “Est. Osmolality” value ([1]; phosphate 5 mM, NaCl 150 mM, pH 7, pirfenidone 16 mg/mL) was 400 mOsmo/Kg, the “Throat Irritation” value ([1]; phosphate 5 mM, NaCl 150 mM, pH 7, pirfenidone 16 mg/mL, 3.7 micron) was 3 and the “Lung Tissue Cmax” value ([2]; 30 mg/kg PO, rat (Table 22)) was about 10 µg/mL. The AUC(0-t) [2, 4] was 3200 ng·h/mL, the Cmax [2, 4] was 3400 ng/mL and the AUC(0-t) [2, 5] was 5800 ng·h/mL. It also gave a Cmax [2, 5] of 8800 ng/mL, an AUC(0-t) [2, 6] of 14600 ng·h/mL and a Cmax [2, 6] of 22800 ng/mL. It also gave an AUC(0-t) ([2]; oral gavage 10 mg/kg) of 4400 ng·h/mL, a Cmax ([2]; oral gavage 10 mg/kg) of 3600 ng/mL and an AUC(0-t) ([2]; oral gavage 30 mg/kg) of 12900 ng·h/mL. For the same compound, the Cmax ([2]; oral gavage 30 mg/kg) was 9800 ng/mL, the AUC(0-t) ([2]; oral gavage 100 mg/kg) was 24200 ng·h/mL and the Cmax ([2]; oral gavage 100 mg/kg) was 26300 ng/mL. The Lung Tissue AUC(0-2 hr) [2, 7] was 3.5 µg·h/g, the “Lung Tissue Cmax” value [2, 7] was 14.4 μg/gram and the Lung Tissue AUC(0-2 hr) ([2]; intratracheal aerosol 5 mg/kg) was 6.6 µg·h/g. For the same compound, the “Lung Tissue Cmax” value ([2]; intratracheal aerosol 5 mg/kg) was 27.9 μg/gram, the Lung Tissue AUC(0-2 hr) ([2]; intratracheal aerosol 10 mg/kg) was 14.5 µg·h/g and the “Lung Tissue Cmax” value ([2]; intratracheal aerosol 10 mg/kg) was 61.1 μg/gram. For the same compound, the adverse events ([2]; intratracheal aerosol over 2 minutes or oral gavage, Wistar rats) was “No adverse events were noted”, the Lung Tissue AUC(0-2 hr) ([2]; oral gavage 10 mg/kg) was 4.9 µg·h/g and the “Lung Tissue Cmax” value ([2]; oral gavage 10 mg/kg) was 3.5 μg/gram. The Lung Tissue AUC(0-2 hr) ([2]; oral gavage 30 mg/kg) was 13.5 µg·h/g, the “Lung Tissue Cmax” value ([2]; oral gavage 30 mg/kg) was 9.8 μg/gram and the Lung Tissue AUC(0-2 hr) ([2]; oral gavage 100 mg/kg) was 27.9 µg·h/g. For the same compound, the “Lung Tissue Cmax” value ([2]; oral gavage 100 mg/kg) was 33.6 μg/gram, the IL-1β ([3]; Longer-term exposure, 40 min > ATP, pirfenidone 5 mcg/mL) was 1.4 pg/mL and the IL-1β ([3]; Longer-term exposure, 40 min > ATP, pirfenidone 25 mcg/mL) was 1.1 pg/mL. It also gave an IL-1β ([3]; Longer-term exposure, 40 min > ATP, pirfenidone 125 mcg/mL) of 0.9 pg/mL, an IL-1β ([3]; Longer-term exposure, 40 min > ATP, pirfenidone 625 mcg/mL) of 0.4 pg/mL and an IC50 ([3]; 40 min, second (40 minute) sampling point alone, short-term exposure) of about 25 µg/mL (≈ 135 µM). For the same compound, the IC50 ([3]; sum of short-term sampling points and longer-term sampling point) was about 625 µg/mL (≈ 3370 µM), the IL-1β ([3]; Short-term exposure, 10 + 40 min > ATP (sum of sampling points), pirfenidone 5 mcg/mL) was 1.1 pg/mL and the IL-1β ([3]; Short-term exposure, 10 + 40 min > ATP (sum of sampling points), pirfenidone 25 mcg/mL) was 1.0 pg/mL. The IL-1β ([3]; Short-term exposure, 10 + 40 min > ATP (sum of sampling points), pirfenidone 125 mcg/mL) was 1.0 pg/mL, the IL-1β ([3]; Short-term exposure, 10 + 40 min > ATP (sum of sampling points), pirfenidone 625 mcg/mL) was 0.6 pg/mL and the IL-1β ([3]; Short-term exposure, 10 min > ATP, pirfenidone 5 mcg/mL) was 81.5 pg/mL. It also gave an IL-1β ([3]; Short-term exposure, 10 min > ATP, pirfenidone 25 mcg/mL) of 100.0 pg/mL, an IL-1β ([3]; Short-term exposure, 10 min > ATP, pirfenidone 125 mcg/mL) of 118.7 pg/mL and an IL-1β ([3]; Short-term exposure, 10 min > ATP, pirfenidone 625 mcg/mL) of 66.3 pg/mL. It also gave an IL-1β ([3]; Short-term exposure, 40 min > ATP, pirfenidone 5 mcg/mL) of 95.8 pg/mL, an IL-1β ([3]; Short-term exposure, 40 min > ATP, pirfenidone 25 mcg/mL) of 50.4 pg/mL and an IL-1β ([3]; Short-term exposure, 40 min > ATP, pirfenidone 125 mcg/mL) of 36.3 pg/mL. It also gave an IL-1β ([3]; Short-term exposure, 40 min > ATP, pirfenidone 625 mcg/mL) of 27.3 pg/mL.
